Target: T1, fluorinase FlA1 (Streptomyces sp., UniProt W0W999)
T1 construct: recombinant, overexpressed in Escherichia coli, purified
Experiment: global numerical fit of steady-state kinetics and mass photometry
Format: biochemical
Conditions: 75 mM KF, 50 mM HEPES, pH 7.8, 37 °C; competitive with fluoride; dissociation of the unproductive E·SAM complex

T1 sequence (W0W999 whole entry): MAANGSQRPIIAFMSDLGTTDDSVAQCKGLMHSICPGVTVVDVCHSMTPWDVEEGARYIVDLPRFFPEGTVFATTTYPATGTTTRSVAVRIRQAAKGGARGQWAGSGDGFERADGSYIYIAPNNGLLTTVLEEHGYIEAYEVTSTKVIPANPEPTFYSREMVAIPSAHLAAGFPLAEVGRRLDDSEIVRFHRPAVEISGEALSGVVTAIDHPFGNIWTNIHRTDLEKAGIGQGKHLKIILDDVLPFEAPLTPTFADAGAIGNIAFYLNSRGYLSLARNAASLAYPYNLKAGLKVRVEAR

SMILES: C[S+](CC[C@H](N)C(=O)O)C[C@H]1O[C@@H](n2cnc3c(N)ncnc32)[C@H](O)[C@@H]1O (stereo partly shown) [SAM]
- Ki,SAM: 1160 ± 80 nM
